{
  "source": "patent US20130317037A1",
  "about": "“METHOD OF ADMINISTRATION AND TREATMENT” (GlaxoSmithKline Intellectual Property Development Limited, priority 2010, published 2013)",
  "key": {"[1]": {"test_system": "BT-20", "assay": "Panel A proliferation assay (CellTiter-Glo); HER2 2 copies, KRAS WT, PIK3CA p.P539R", "assay_type": "cell-based, human", "settings": "for IC50: Homo sapiens", "experimental": "(§1) A total of 15 breast cancer cell lines were used in this study. These cells were cultured in RPMI-1640 and supplemented with 5% or 10% fetal bovine serum, 2 mM GlutaMAX™ and 1 mM sodium pyruvate, or in growth medium recommended by the suppliers [American Type Culture Collection, Manassas, Va., USA; Developmental Therapeutics Program, National Cancer Institute, Bethesda, Md., USA; German Collection of Microorganisms and Cell Cultures (DSMZ), Braunschweig, Germany; European Collection of Cell Cultures (ECACC), Porton Down, UK]. Cells of each line were seeded into a 384-well microtiter plate at two cell densities. Low density ranges were 300-1800 cells/well, and a high density was 600 to 3600 cells/well). The plating density was determined by the rate of proliferation of the cell line in the absence of any inhibitor and varied amongst cell lines. High plating densities were double that of low density. Each cell density was plated in triplicate. In total there were 30 wells to be treated with increasing concentrations of Compound B for each cell line at each density. In addition, there were 24 wells of dimethyl sulfoxide (DMSO)-treated controls at each density. After seeding, the cells were incubated at 37° C. in 5% CO2 for 24 hours. Subsequently, Compound B was added to each cell line with 10 concentrations. The dosing solution of Compound B was first prepared in DMSO at a master stock concentration of 10 mM. […] were then made of the stock solution to give a range of working stock concentrations; 10.00 mM, 3.164 mM, 1.001 mM, 316.9 μM, 100.3 μM, 31.74 μM, 10.04 μM, 3.178 μM, 1.006 μM and 318.3 nM. The working stock concentrations of Compound B were then dispensed into the seeded cancer cell lines using a Biomek FX liquid handler to give final treatment concentrations of 0.1% of the stock concentration. A similar volume of DMSO without Compound B was dispensed into the 24 control wells of each seeding density at a concentration of 0.1%. Also, a zero-time plate prepared with a similar cell seeding was read for each cell line at each seeding density immediately after the addition of the DMSO control. After a 72 h incubation, an equal volume of the CellTiter-Glo (CellTiter-Glo Luminescent Cell Viability Assay, Promega, Madison, Wis.) to that of the cell culture medium was added into each well of the plate. After the contents were mixed to induce cell lysis and stabilization, cell luminescence was recorded using a SpectraMax M5^e (Molecular Devices, Sunnyvale, Calif., USA)\n(§2) The luminescence of Compound B treated cells was compared relative to the average of the 24 DMSO-treated control wells at each cell density for every concentration of Compound B for all triplicate wells. The percent intensity values were used in model 205 of XLfit in Microsoft Excel to calculate gIC50s for the low and high seeding density (a 4 parameter logistical fit). Specifically, the midpoint of the growth window (the gIC50) falls half way between the number of cells at the time of compound addition (T=0) and the growth of control cells treated with DMSO. The gIC50 value serves as a metric for measuring the inhibition of proliferation in cancer cells. […] Finally, where data quality permits, the Ymin values (defined as the maximum growth inhibition relative to the cell density at Time-zero) were calculated as a measure of cytotoxicity where data were of reasonable quality."}, "[2]": {"test_system": "EFM-19", "assay": "Panel A proliferation assay (CellTiter-Glo); HER2 Gain <5, KRAS WT, PIK3CA p.H1047L", "assay_type": "cell-based, human", "settings": "for IC50: Homo sapiens", "experimental": "as §1, §2"}, "[3]": {"test_system": "T-47D", "assay": "Panel A proliferation assay (CellTiter-Glo); HER2 Gain <5, KRAS WT, PIK3CA p.H1047R", "assay_type": "cell-based, human", "settings": "for IC50: Homo sapiens, T47D", "experimental": "as §1, §2"}, "[4]": {"test_system": "HCC70", "assay": "cells", "assay_type": "cell-based", "experimental": "(§3) From the stock concentration, 8 serial dilutions (1:5) were made with DMSO.\n(§4) Day −1: Plate cells in 100 μl volume in 96 well plate. • Note: Cell number seeded adjusted for growth characteristics, so that at time of assay for proliferation following three-day drug treatment, the control wells should still be in log-growth phase (sub-confluent). Day 0: Drug added to plate for treatment. • A time 0 plate was processed for the proliferation assay to establish a baseline reading at time when drug was added.\n(§5) LBNL are following the protocols set up by the NCI/NIH DTP Human Tumor Cell Line Screen Process (http://dtp.nci.nih.gov/branches/btb/ivclsp.html) and summarized below.\n(§6) [(Ti−Tz)/(C−Tz)]×100 for concentrations for which Ti>/=Tz\n(§7) [(Ti−Tz)/(C−Tz)]×100=50, • which is the drug concentration resulting in a 50% reduction in the net growth in control cells during the drug incubation. TGI: Total growth inhibition is calculated from\n(§8) Ti=Tz. • The drug concentration resulting in total growth inhibition (down to the ‘time 0’ baseline). LC50: Net loss of cell growth at 50% is calculated from\n(§9) [(Ti−Tz)/Tz]×100=−50. • The concentration of drug resulting in a 50% reduction in the cell number at the end of the drug treatment as compared to that at the beginning (time 0) indicating a net loss of cells following treatment.\n(§10) Values are calculated for each of these three parameters if the level of activity is reached; however, if the effect is not reached or is exceeded, the value for that parameter is expressed as greater or less than the maximum or minimum concentration tested."}, "[5]": {"test_system": "MCF10A", "assay": "cells", "assay_type": "cell-based", "experimental": "as §3, §4, §5, §6, §7, §8, §9, §10"}, "[6]": {"test_system": "MDAMB175VII", "assay": "cells", "assay_type": "cell-based", "experimental": "as §3, §4, §5, §6, §7, §8, §9, §10"}, "[7]": {"test_system": "SKBR3", "assay": "cells", "assay_type": "cell-based", "experimental": "as §3, §4, §5, §6, §7, §8, §9, §10"}, "[8]": {"test_system": "HCC1569", "assay": "cells", "assay_type": "cell-based", "experimental": "as §3, §4, §5, §6, §7, §8, §9, §10"}},
  "note": "Like-named read-outs stand apart in the source and are kept apart here.",
  "data": [
    {"compound": "COc1ncc(-c2ccc3nccc(-c4ccnnc4)c3c2)cc1NS(=O)(=O)c1ccc(F)cc1F", "note": "[Compound B, 2,4-difluoro-N-{2-(methyloxy)-5-[4-(4-pyridazinyl)-6-quinolinyl]-3-pyridinyl}benzenesulfonamide]", "values": [
      {"measurement": "High Density Y-Min", "setting": "[1]; BT-20, high density, % of cells at T = 0", "result": 20.7, "unit": "%"},
      {"measurement": "Low Density Y-Min", "setting": "[1]; BT-20, low density, % of cells at T = 0", "result": 10.7, "unit": "%"},
      {"measurement": "IC50", "setting": "[1]; BT-20, high seeding density, 72 h, read-out: High Density gIC50", "result": 7.8, "unit": "nM"},
      {"measurement": "IC50", "setting": "[1]; BT-20, low seeding density, 72 h, read-out: Low Density gIC50", "result": 6.3, "unit": "nM"},
      {"measurement": "IC50", "setting": "[1]; BT-20, mean of low and high density, read-out: Mean gIC50", "result": 7.05, "unit": "nM"},
      {"measurement": "High Density Y-Min", "setting": "[2]; EFM-19, high density, % of cells at T = 0", "result": 22.7, "unit": "%"},
      {"measurement": "Low Density Y-Min", "setting": "[2]; EFM-19, low density, % of cells at T = 0", "result": 24.1, "unit": "%"},
      {"measurement": "IC50", "setting": "[2]; EFM-19, high seeding density, 72 h, read-out: High Density gIC50", "result": 0.5, "unit": "nM"},
      {"measurement": "IC50", "setting": "[2]; EFM-19, low seeding density, 72 h, read-out: Low Density gIC50", "result": 0.6, "unit": "nM"},
      {"measurement": "IC50", "setting": "[2]; EFM-19, mean of low and high density, read-out: Mean gIC50", "result": 0.55, "unit": "nM"},
      {"measurement": "IC50", "setting": "[3]; high seeding density, 72 h, read-out: High Density gIC50", "result": 1.8, "unit": "nM"},
      {"measurement": "IC50", "setting": "[3]; low seeding density, 72 h, read-out: Low Density gIC50", "result": 1.1, "unit": "nM"},
      {"measurement": "IC50", "setting": "[3]; mean of low and high density, read-out: Mean gIC50", "result": 1.45, "unit": "nM"},
      {"measurement": "High Density Y-Min", "setting": "[3]; high density, % of cells at T = 0", "result": 103.6, "unit": "%"},
      {"measurement": "Low Density Y-Min", "setting": "[3]; low density, % of cells at T = 0", "result": 104.6, "unit": "%"},
      {"measurement": "TGI", "setting": "[4]; HCC70, total growth inhibition", "result": 26.8, "unit": "nM"},
      {"measurement": "IC50", "setting": "[4]; Homo sapiens, 72 h, HCC70, three-day drug treatment, read-out: gIC50", "result": 4.9, "unit": "nM"},
      {"measurement": "CC50", "setting": "[4]; Homo sapiens, HCC70, 50% net loss of cells vs time 0, read-out: LC50 (the source's name)", "result": 118, "unit": "nM"},
      {"measurement": "IC50", "setting": "[5]; Homo sapiens, MCF-10A, 72 h, three-day drug treatment, read-out: gIC50", "result": 7.2, "unit": "nM"},
      {"measurement": "TGI", "setting": "[5]; total growth inhibition", "result": 467.7, "unit": "nM"},
      {"measurement": "CC50", "setting": "[6]; Homo sapiens, MDA-MB-175-VII, 50% net loss of cells vs time 0, read-out: LC50 (the source's name)", "result": 501, "unit": "nM"},
      {"measurement": "IC50", "setting": "[6]; Homo sapiens, MDA-MB-175-VII, 72 h, three-day drug treatment, read-out: gIC50", "result": 4.4, "unit": "nM"},
      {"measurement": "TGI", "setting": "[6]; total growth inhibition", "result": 13.5, "unit": "nM"},
      {"measurement": "IC50", "setting": "[7]; Homo sapiens, SK-BR-3, 72 h, SKBR3, three-day drug treatment, read-out: gIC50", "result": 3.2, "unit": "nM"},
      {"measurement": "TGI", "setting": "[7]; SKBR3, total growth inhibition", "result": 199.5, "unit": "nM"},
      {"measurement": "TGI", "setting": "[8]; HCC1569, total growth inhibition", "result": 67.4, "unit": "nM"},
      {"measurement": "IC50", "setting": "[8]; Homo sapiens, 72 h, HCC1569, three-day drug treatment, read-out: gIC50", "result": 16.3, "unit": "nM"},
      {"measurement": "CC50", "setting": "[8]; Homo sapiens, HCC1569, 50% net loss of cells vs time 0, read-out: LC50 (the source's name)", "result": "> 33000", "unit": "nM"}
    ]}
  ]
}
